According to patent EP0664704B1, “USE OF DOPAMINE AGONISTS TO ACTIVATE GAMMA-[…]” (SCHERING AKTIENGESELLSCHAFT, priority 1992, dated 1994):

Key:
Tumoren = test: Two-year treatment of rodents: tumour frequency and severity, survival; type: in vivo, Mäusen und Ratten; conditions: male and female mice and rats, various doses over 2 years; for Häufigkeit und Schwere von verschiedenen Tumoren: partly dose-dependent, leukaemias, lymphomas, tumours of mammae, pituitary, ovaries
Description: In vivo-Untersuchungen an Nager-Gruppen von männlichen und weiblichen Mäusen und Ratten wurden mit verschiedenen Dosen von Lisurid und Tergurid über 2 Jahre behandelt. […] Dies läßt eine therapeutisch erwünschte lokale Freisetzung dieser Faktoren bei niederer Dosierung von Dopaminagonisten erwarten, die erst bei excessiver Dosierung zur Ausschwemmung ins Blut gelangt und damit die Nebenwirkung einer direkten IFN-γ-Anwendung bewirkt.

IFN-γ = test: PHA-stimulated IFN-γ release in blood of patients treated with subcutaneous lisuride, ELISA of supernatant; type: in vivo, Patienten
Experimental: (§1) Wir untersuchten die mitogen-induzierte Zytokinfreisetzung von 18 Patienten, die wegen M. Parkinson (n=13) oder Dystonie (n=5) mit subkutanem Lisurid behandelt wurden. 18 Patienten wurden mit 11 gesunden altersgleichen Kontrollen verglichen. Nach mitogener Stimulation mit 50 µl Phythämagglutinin (PHA) (5 µg/ml) über 24 h (TNF-α) bzw. 72h (IFN-γ) wurden TNF-α und IFN-γ im Überstand mit einem Elisa Assay (Gallati 1987) bestimmt: Da die Daten nicht normal verteilt sind, wurde der Mann-Whitney-Test zur Analyse der Gruppenmittelwerte gerechnet. Es fanden sich folgende Ergebnisse:
(§2) Es wurde dieselbe Lisurid-Gruppe (n=18) wie o.a. mit zwei Gruppen gesunder Freiwilliger verglichen: Einer Gruppe junger (Alter unter 50 Jahre) und mit einer Gruppe älterer Gesunder (Alter über 65 Jahre). Die Zytokinmessung und statistische Auswertung erfolgte wie oben erwähnt. […] Dies legt den Schluß nahe, daß die alterskorreliert abnehmende IFN-γ und TNF-α Produktion durch dopaminerge Therapie antagonisiert werden kann.
(§3) Den Daten ist zu entnehmen, daß durch die Behandlung mit Lisurid nach Stimulation eine vermehrte Freisetzung von IFN-γ und TNF-α erfolgt. Die Freisetzung der Cytokine ist erst in vitro in einer Kurzzeit-Kultur des Vollblutes entstanden. In der Kontrollgruppe ohne PHA Zugabe ließ sich kein IFN-γ nachweisen. […]

TNF-α = test: PHA-stimulated TNF-α release in blood of patients treated with subcutaneous lisuride, ELISA of supernatant; type: in vivo, Patienten
Experimental: as §1, §2, §3

Zytokin-Freisetzung = test: In vitro cytokine release in whole-blood assays co-incubated with lisuride and PHA; type: cell-based, gesunden jungen Freiwilligen; conditions: whole blood of 10 healthy young volunteers; without lisuride vs low, therapeutic and toxic lisuride concentration, together with PHA
Experimental: as §1
(§4) Von 10 gesunden jungen Freiwilligen wurden Vollblut-Assays (s.o.) mit 4 verschiedenen Konzentrationen von Lisurid zusammen mit dem Stimulans (PHA) inkubiert. […] Dies läßt vermuten, daß es sich bei den Patientendaten nicht um kurzzeitige Effekte der Substanz auf die immunkompetenten Zellen (vor allem T-Lymphozyten und NK-Zellen) handelt. Vielmehr werden über Rezeptor/postrezeptorische Mechanismen Effekte auf die Freisetzung und/oder Synthese von IFN-γ und anderen Faktoren vermittelt. Auch ein direkter oder indirekter Effekt auf das Genom ist möglich. Für die therapeutische Anwendung erwünscht ist die beobachtete Anreicherung von Dopaminagonisten in den Membranen von weißen Blutzellen, wie sie im Falle von Lisurid durch die UV-Fluoreszenz dieses Moleküls nachweisbar ist.

[1] = tested on: Membranen von weißen Blutzellen; test: Accumulation in membranes of white blood cells, detected by UV fluorescence; conditions: UV fluorescence of the molecule
Description: as §4

[2] = Six-month continuous s.c. infusion at extremely high dose in monkeys; type: in vivo, Affen; conditions: monkey, 1 mg/kg/Tag s.c. infused continuously over 6 months (10-fold maximal human dose)
[3] = lisuride group (n=18, median age 61) vs young healthy group (under 50 years) and older healthy group (over 65 years)

SMILES | Anteil überlebender Tiere (Tumoren) | Häufigkeit und Schwere von verschiedenen Tumoren (Tumoren) | IFN-γ Produktion nach mitogener Stimulation (IFN-γ; [3]) | IFN-γ Freisetzung nach PHA-Stimulation (IFN-γ; lisuride-treated patients (n=18, M. Parkinson or Dystonie) vs 11 healthy age-matched controls, PHA 72 h, Mann-Whitney p=0.039) | α-TNF Produktion nach mitogener Stimulation (TNF-α; [3]) | TNF-α Freisetzung (TNF-α; lisuride-treated patients (n=18) vs 11 healthy age-matched controls, PHA 24 h, Mann-Whitney p=0.055) | Zytokin-Freisetzung bei Koinkubation mit Lisurid (Zytokin-Freisetzung) | Anreicherung in den Membranen von weißen Blutzellen [1] | Befunde bei extrem hoher parenteraler Applikation [2]
CCN(CC)C(=O)N[C@H]1C[C@@H]2c3cccc4[nH]cc(c34)C[C@H]2N(C)C1 [Tergurid] | signifikante Erhöhung | signifikante Reduktion |  |  |  |  |  |  | 
CCN(CC)C(=O)NC1C=C2c3cccc4[nH]cc(c34)CC2N(C)C1 (centres unmarked) [Lisurid] | signifikante Erhöhung | signifikante Reduktion | signifikant erhöht | signifikant erhöht | signifikant erhöht | deutlich erhöht | keine Unterschiede | nachweisbar | wie sie für eine Überproduktion oder Freisetzung von IFN-γ und vergleichbarer Substanzen typisch sind
